Reference: patent publication US20070219275A1, “Use of Benzophenone Uv Filters for Preventing Tanning” (priority 2004, published 2007)

System: skin pigmentation on the back of Asian volunteers
Experiment: Tanning prevention: skin color (L*a*b*, Minolta chromameter) on the back of volunteers irradiated with simulated solar light
Assay type: in vivo, human
Conditions: day cream with 5% compound
Description: Skin color was measured in the L*a*b* colour by means of a Minolta CM-508i®) Chromameter).
10 Volunteers of originating from S-E-Asia and with a skinlightness L* between 65.4 and 40.8 were recruited following COLIPA-Guidelines.
The influence of extensive sun exposure on skin pigmentation and the protective effects of day care cosmetics were directly measured on the back of volunteers:
40 and 20 minutes prior to irradiation volunteers treated on the back with 2 mg/cm^2 of cream formulation.
Then tey were irradiated with simulated solar light for 12 weeks, 3-times a week with a dose≦1 MED (Minimal erythema dose; MED adjusted monthly).
The skin of the volunteers was assessed prior to the test and monthly prior to cream application and irradiation.
The influence of extensive sun exposure on skin pigmentation and the protective effects of a day cream containing
was directly measured on the back of Asian volunteers.
The skin of the volunteers was assessed prior to the test and monthly prior to cream application and irradiation for skin color by a Minolta Colorimeter 508i.

[1] = After 4 weeks, irradiation 3x/week <1 MED
[2] = After 8 weeks, irradiation 3x/week <1 MED
[3] = After 12 weeks, irradiation 3x/week <1 MED
[4] = Start, 2 mg/cm^2, 10 Asian volunteers

Q: For `CCCCCCOC(=O)c1ccccc1C(=O)c1ccc(N(CC)CC)cc1O` [compound of formula (3)], which “L* (skin color)” value [1] is on record?
A: The value was 50.5.

Q: And the “a* (skin color)” value [1]?
A: Its value is 23.1.

Q: What about the “b* (skin color)” value [1] of the same compound?
A: Its value is 22.6.

Q: What about the “L* (skin color)” value [2] of the same compound?
A: Its value is 48.8.

Q: And the “a* (skin color)” value [2]?
A: Its value is 22.6.

Q: What about the “b* (skin color)” value [2] of the same compound?
A: Its value is 23.3.

Q: What about the “L* (skin color)” value [3] of the same compound?
A: Its value is 47.7.

Q: What about the “a* (skin color)” value [3] of the same compound?
A: The value was 21.5.

Q: And the “b* (skin color)” value [3]?
A: The value was 24.6.

Q: What about the “L* (skin color)” value [4] of the same compound?
A: Its value is 53.3.

Q: What about the “a* (skin color)” value [4] of the same compound?
A: The value was 22.5.

Q: What about the “b* (skin color)” value [4] of the same compound?
A: Its value is 22.5.
